# Entries after “also recorded” stand apart in the source; their conditions may differ.
# How the values were obtained:
# [1] = test system: NCI-H292 cells; assay: Clonogenic survival assay, NCI-H292 NSCLC cells; type: cell-based, human
# Experimental: Treatment conditions for individual experiments are as described in the figure legends and summarized in the Supplemental Experimental Procedures.
# 1-2×10^5 cells were plated in 60 mm cell culture dishes and grown in their respective media for 48 h before exposed to experimental conditions. […] For AdGPx1 experiments, cells were supplemented with 50 nM sodium selenite following transduction and throughout clonogenic growth. […] After treatment, cells were washed with PBS and clonogenic assay was completed in their respective media. Briefly, floating and attached cells were collected and total cells per plate were counted. An experimentally derived number of cells were plated into each well of a 6-well cell culture plate in their respective media. For HEL92.1.7 suspension cells, cells were seeded in a top layer of 0.4% (w/v) agarose to allow for quantifiable colony formation. […] Normalized survival fractions were calculated by comparing plating efficiencies of each treatment group against the control group within a given experiment.
# [2] = test system: NCI-H292 xenografts
# Experimental: Nude mice were injected with NCI-H292 cells into their flanks and tumors grown to a diameter of 2-4 mm.
# Female 4-6 week old female athymic-nu/nu mice were purchased from Envigo (previously Harlan Laboratories) and housed in the Animal Care Facility at the University of Iowa (Iowa City, Iowa), and all procedures were approved by the University of Iowa Institutional Animal Care and Use Committee and conformed to NIH guidelines. 1×10^6 H292 or U87 cells were injected subcutaneously into the right rear flank and mice were euthanized and sacrificed when tumor length exceeded 1.5 cm in any dimension. Treatment regimens were as described in the text and are summarized in the Supplemental Experimental Procedures.
# Female 4-6 week old female athymic-nu/nu mice were purchased from Envigo (previously Harlan Laboratories) and housed in the Animal Care Facility at the University of Iowa (Iowa City, Iowa), and all procedures were approved by the University of Iowa Institutional Animal Care and Use Committee and conformed to NIH guidelines. 1×10^6 H292 or U87 cells were injected subcutaneously into the right rear flank. […] Tumors were measured every other day with Vernier calipers (volume=(length×width×(width/2)) and mice were euthanized and sacrificed when tumor length exceeded 1.5 cm in any dimension.
# [3] = test system: GBM cells; assay: Cellular labile iron pool (Calcein-AM flow cytometry), GBM cells; type: cell-based, human; settings: increasing doses of ascorbate
# Experimental: The labile iron pool (LIP) was visualized using the fluorescent dye Calcein-AM as previously described (Epsztejn et al., 1997) with modifications. After labeling, samples were divided into two flow cytometry sample tubes, to which 100 μM 2′,2′-bipyridyl (BIP) was added to one tube and analyzed by flow cytometry. BIP tubes were incubated for at least 15 minutes before analysis to allow for full chelation of intracellular labile iron. The LIP (A.U.)=MFIBIP−MFINoBIP was normalized against the control samples to calculate the relative labile iron pool.
# The labile iron pool (LIP) was visualized using the fluorescent dye Calcein-AM as previously described with modifications (Epsztejn et al., 1997). Briefly, after sample treatment, cells were trypsinized, spun at 1,200 rpm for 5 min, and resuspended at approximately 1×10^6 cells mL-1 in 500 nM Calcein-AM in PBS. Samples were incubated for 15 min at 4% O2 in a humidity controlled environment (37° C., 5% CO2). Subsequently, samples were pelleted, washed in PBS, and resuspended in 1 mL PBS before dividing each sample into two flow cytometry sample tubes, to which 100 μM 2′,2′-bipyridyl (BIP) was added to one tube. Samples were kept at room temperature and analyzed on a LSR II Flow Cytometer (BD Biosciences; λex=488 nm, λem=515/20 nm). […]
# [4] = test system: ETC complex I; assay: ETC complex I activity after ascorbate exposure; type: cell-based, human; settings: 15 pmol cell^−1 ascorbate for 1 h, NSCLC cell lysates
# Experimental: (§1) Exponentially growing cells were scraped and frozen as dry pellets until assayed for total activity. Aconitase activity was measured as the rate of appearance of NADPH (at 340 nm; Beckman DU 800 spectrophotometer, Brea, Calif.) for 45 min during the reaction of 200 μg total sample protein with 200 μM NADP^+ and 10 U isocitrate dehydrogenase as previously described (Case et al., 2011). Maximal ETC complex activity was measured as previously described (Birch-Machin et al., 1994). Complex I activity was quantified as the rate of rotenone-inhibitable NADH oxidation (320 nm; c=6.22 mM^−1 cm^−1). Complex II activity as the difference in the rate of DCIP reduction in the presence and absence of succinate (at 600 nm; ε=19.1 mM^−1 cm^−1). Complex IV activity was assayed as the rate of oxidation of cytochrome c ([…]; ε=19.6 mM^−1 cm^−1). Rates of activities were normalized to total protein by Lowry.
# (§2) Exponentially growing cells were scraped and frozen as dry pellets until assayed for protein content (Lowry) and maximal ETC complex activity as previously described (Birch-Machin et al., 1994). Briefly, dry cell pellets were resuspended in 20 mM potassium phosphate buffer and sonicated 3×10 s each. Rates of activities were normalized to total protein. Complex I activity was quantified as the rate of rotenone-inhibitable NADH oxidation (320 nm; ε=6.22 mM-1 cm-1). […]
# [5] = test system: ETC complex II; assay: ETC complex II activity after ascorbate exposure; type: cell-based, human; settings: 15 pmol cell^−1 ascorbate for 1 h, NSCLC cell lysates
# Experimental: as §1, §2
# [6] = IV delivery; cited from earlier work
compound,measurement,setting,value
"O=C1O[C@H]([C@@H](O)CO)C(O)=C1O [ascorbate, L-ascorbic acid]",sensitization to carboplatin + IR (clonogenic survival),[1]; 1 h ascorbate + 5 μM carboplatin + 2 Gy IR vs Carbo+IR alone,significantly increased sensitivity to Carbo+IR; also recorded: selectively sensitized
same,clonogenic survival / cell killing,"[1]; ascorbate alone, 1 h exposure",more clonogenic cell killing in NSCLC cell lines than chemotherapy plus radiation; also recorded: dose-dependent clonogenic cell killing
same,survival of xenograft-bearing mice,[2]; Example 1: ascorbate 4 g/kg IP daily + 12 Gy/6fx IR + weekly 15 mg/kg carboplatin vs chemo-radiation alone,survived significantly longer
same,tolerability (lack of weight loss),"[2]; Example 1: ascorbate 4 g/kg IP daily, alone or with chemo-radiation",well-tolerated
same,tolerability (mouse weight),[2]; Example 4: ascorbate 4 g kg^−1 IP daily,well tolerated
same,overall survival,[2]; Example 4: ascorbate 4 g kg^−1 IP daily + 12 Gy IR/2 fractions + weekly 15 mg kg^−1 CPL,significantly increased overall survival
same,cellular LIP after ascorbate,[3],significant dose-dependent ascorbate-induced increases in cellular LIP
same,ETC complex I activity,[4],inactivation
same,ETC complex II activity,[5],inactivation
same,serum ascorbate concentration achieved (effective therapeutic level),[6],≈ 20 mM
